Publication PMC6151561, “Rapid Identification of Dipeptidyl Peptidase-IV (DPP-IV) Inhibitory Peptides from Ruditapes philippinarum Hydrolysate” (Molecules : A Journal of Synthetic Chemistry and Natural …, 2017)
No end group written: not given here.

What was measured:
DPP-IV enzyme = target: T1, DPP-IV enzyme (Sus scrofa, UniProt P22411); experiment: Lineweaver-Burk double-reciprocal plot, mode of DPP-IV inhibition; assay type: biochemical, porcine; settings: Figure 7
T1 construct: purchased Sigma Chemical Co. (St. Louis, MO, USA)
Experimental: Figure 7 Lineweaver—Burk double-reciprocal plot for DPP-IV activity in the absence and presence of four peptides at different inhibitory concentrations. […] (0, 150, and 300 μM); (C) peptide LAPSTM (0, 150, and 300 μM); (D) peptide […] (0, 250, and 500 μM); and (E) peptide FLMESH (0, 400, and 800 μM).
DPP-IV inhibitory activity was measured as previously described by Zhang with minor modifications. Briefly, a 25 μL sample (diluted in 100 mM Tris-HCl buffer at pH 8.0) was mixed with 25 μL Gly-Pro-p-nitroanilide (1.6 mM) and pre-incubated at 37 °C for 10 min. Subsequently, 50 μL of DPP-IV (8 U/L) was added and the mixture was incubated at 37 °C for 1 h. The reaction was terminated by adding 100 μL of 1 M sodium acetate buffer at pH 4.0. The absorbance of each reaction was measured at 405 nm. […] The percent DPP-IV inhibition was calculated according to the following equation: DPP-IV inhibition(%)=[1−Asample/Ablank]×100%

DPP-IV [1] = test system: DPP-IV; set-up: method as in PMID 26758401; settings: heptapeptide derived from silver carp actin; cited from earlier work
porcine DPP-IV = target: T2, porcine DPP-IV (Sus scrofa, UniProt P22411); experiment: DPP-IV inhibitory activity assay (Gly-Pro-p-nitroanilide substrate, absorbance 405 nm); assay type: biochemical; settings: chemically synthesized peptides; diprotin A positive control
T2 construct: purchased Sigma Chemical Co. (St. Louis, MO, USA)
From the text: Papain (from papaya, 8 × 10^5 units/g of protein), trypsin (from porcine pancreas, 2.5 × 10^5 units/g of protein), pepsin (from porcine gastric mucosa, 1 × 10^4 units/g of protein), flavourzyme (from […], 2 × 10^4 units/g of protein), and alcalase (from Bacillus licheniformis, 2 × 10^5 units/g of protein) were purchased from […] Biological Tech., Ltd. (Nanjing, China). […] (St. Louis, MO, USA). Mass spectrometry (MS)-grade water, acetonitrile (ACN), and trifluoroacetic acid (TFA) were purchased from Tedia Company Inc. (Fairfield, CT, USA). All other reagents were obtained from Sigma. All reagents were of analytical grade. DPP-IV inhibitory activity was measured as previously described by Zhang with minor modifications. Briefly, a 25 μL sample (diluted in 100 mM Tris-HCl buffer at pH 8.0) was mixed with 25 μL Gly-Pro-p-nitroanilide (1.6 mM) and pre-incubated at 37 °C for 10 min. […] The reaction was terminated by adding 100 μL of 1 M sodium acetate buffer at pH 4.0. The absorbance of each reaction was measured at 405 nm. Diprotin A ([…]) was used as a reference inhibitor. The percent DPP-IV inhibition was calculated according to the following equation: […] The DPP-IV inhibitory activity of these chemically synthesized peptides was determined as described in Section 3.3.

DPP-IV [2] = test system: DPP-IV; set-up: method as in PMID 25577052; settings: read-out: DPP-IV inhibitory activity IC50; cited from earlier work

T2 sequence (P22411 whole entry): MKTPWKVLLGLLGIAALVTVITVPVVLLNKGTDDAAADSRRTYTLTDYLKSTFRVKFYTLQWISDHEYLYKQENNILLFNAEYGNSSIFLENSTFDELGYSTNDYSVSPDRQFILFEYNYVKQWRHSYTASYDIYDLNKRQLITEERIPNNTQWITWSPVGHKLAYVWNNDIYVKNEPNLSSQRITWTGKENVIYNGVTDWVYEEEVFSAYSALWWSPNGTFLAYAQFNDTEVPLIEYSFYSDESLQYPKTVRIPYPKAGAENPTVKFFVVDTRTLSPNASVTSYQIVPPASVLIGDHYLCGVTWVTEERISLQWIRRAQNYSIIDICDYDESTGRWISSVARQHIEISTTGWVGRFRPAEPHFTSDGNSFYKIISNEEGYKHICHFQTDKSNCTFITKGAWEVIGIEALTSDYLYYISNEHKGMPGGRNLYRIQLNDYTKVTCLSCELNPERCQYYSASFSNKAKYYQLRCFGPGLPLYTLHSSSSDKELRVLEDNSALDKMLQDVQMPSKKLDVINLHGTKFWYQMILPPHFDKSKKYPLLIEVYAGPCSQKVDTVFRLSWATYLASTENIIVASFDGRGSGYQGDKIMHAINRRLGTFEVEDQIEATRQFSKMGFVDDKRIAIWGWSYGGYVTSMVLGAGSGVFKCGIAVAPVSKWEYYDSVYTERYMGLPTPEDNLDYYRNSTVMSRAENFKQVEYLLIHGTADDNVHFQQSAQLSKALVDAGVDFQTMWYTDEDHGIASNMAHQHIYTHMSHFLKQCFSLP
T1 sequence (P22411 whole entry): as above

Row | Compound | mode of inhibition of DPP-IV enzyme (DPP-IV enzyme) | DPP-IV inhibitory effect (DPP-IV [1]) | IC50 (porcine DPP-IV) | IC50 (DPP-IV [2])
1 | CC[C@H](C)[C@H](N)C(=O)N1CCC[C@H]1C(=O)N[C@H](C(=O)O)[C@@H](C)CC [diprotin A, Ile-Pro-Ile, reference compound] | competitive inhibitor | – | – | –
2 | ALAPSTM [heptapeptide derived from silver carp actin, from the literature] | – | weak DPP-IV inhibitory effect | – | –
3 | FAGDDAPR [FAGDDAPR] | competitive/non-competitive mixed-type inhibition mode | – | 169 µM | –
4 | FAGDDAPRA [FAGDDAPRA] | competitive/non-competitive mixed-type inhibition mode | – | 393 µM | –
5 | FLMESH [FLMESH] | competitive/non-competitive mixed-type inhibition mode | – | > 500 µM | –
6 | LAPSTM [LAPSTM] | – | – | 141 µM | –
7 | Leu-Ala | – | – | – | 91 µM
